{
  "source": "patent US12037336B2",
  "about": "“Compounds with activity as inhibitors of the epithelial sodium channel (ENaC)” (Enterprise Therapeutics Limited, priority 2018, dated 2024)",
  "target": "T1, ENaC (Homo sapiens, UniProt P37088+P51168+P51170)",
  "T1 construct": "host or cells: primary human bronchial epithelial cells (HBECs), differentiated at an air-liquid interface",
  "T1 sequence (P37088 1-669)": "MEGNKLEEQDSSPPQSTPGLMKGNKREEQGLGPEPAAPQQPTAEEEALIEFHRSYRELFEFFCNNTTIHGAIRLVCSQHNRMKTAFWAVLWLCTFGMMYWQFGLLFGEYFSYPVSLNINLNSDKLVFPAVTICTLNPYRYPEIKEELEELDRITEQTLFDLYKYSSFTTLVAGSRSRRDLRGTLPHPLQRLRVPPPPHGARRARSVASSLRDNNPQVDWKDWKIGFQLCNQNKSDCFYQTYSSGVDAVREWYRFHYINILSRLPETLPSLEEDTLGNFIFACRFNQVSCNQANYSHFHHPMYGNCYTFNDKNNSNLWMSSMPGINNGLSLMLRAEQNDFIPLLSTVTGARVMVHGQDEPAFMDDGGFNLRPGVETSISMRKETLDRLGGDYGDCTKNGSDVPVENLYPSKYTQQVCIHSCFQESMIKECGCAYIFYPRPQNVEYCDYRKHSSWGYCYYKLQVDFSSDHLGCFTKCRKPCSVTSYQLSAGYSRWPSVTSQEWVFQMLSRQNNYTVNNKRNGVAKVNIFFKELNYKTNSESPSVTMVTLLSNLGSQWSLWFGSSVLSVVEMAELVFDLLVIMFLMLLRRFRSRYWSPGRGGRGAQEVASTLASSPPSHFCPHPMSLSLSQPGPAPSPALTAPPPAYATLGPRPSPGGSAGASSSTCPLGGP",
  "T1 sequence (P51168 1-640)": "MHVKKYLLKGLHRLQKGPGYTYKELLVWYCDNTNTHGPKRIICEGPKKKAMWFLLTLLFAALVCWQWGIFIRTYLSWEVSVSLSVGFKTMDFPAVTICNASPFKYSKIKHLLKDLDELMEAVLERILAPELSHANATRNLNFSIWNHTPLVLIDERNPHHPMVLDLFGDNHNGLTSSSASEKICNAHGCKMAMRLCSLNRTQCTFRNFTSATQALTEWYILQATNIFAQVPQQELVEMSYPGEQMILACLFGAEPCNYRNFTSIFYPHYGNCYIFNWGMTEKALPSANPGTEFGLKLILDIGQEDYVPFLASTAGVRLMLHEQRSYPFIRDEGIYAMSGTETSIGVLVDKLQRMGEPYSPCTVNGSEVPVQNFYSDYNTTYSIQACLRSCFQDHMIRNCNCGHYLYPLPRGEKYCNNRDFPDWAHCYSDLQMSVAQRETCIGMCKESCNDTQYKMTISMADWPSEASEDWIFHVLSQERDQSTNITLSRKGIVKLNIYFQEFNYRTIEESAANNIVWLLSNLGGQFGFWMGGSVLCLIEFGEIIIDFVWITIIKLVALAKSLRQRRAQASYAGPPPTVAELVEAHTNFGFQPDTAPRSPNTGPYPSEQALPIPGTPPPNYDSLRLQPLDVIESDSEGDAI",
  "T1 sequence (P51170 1-649)": "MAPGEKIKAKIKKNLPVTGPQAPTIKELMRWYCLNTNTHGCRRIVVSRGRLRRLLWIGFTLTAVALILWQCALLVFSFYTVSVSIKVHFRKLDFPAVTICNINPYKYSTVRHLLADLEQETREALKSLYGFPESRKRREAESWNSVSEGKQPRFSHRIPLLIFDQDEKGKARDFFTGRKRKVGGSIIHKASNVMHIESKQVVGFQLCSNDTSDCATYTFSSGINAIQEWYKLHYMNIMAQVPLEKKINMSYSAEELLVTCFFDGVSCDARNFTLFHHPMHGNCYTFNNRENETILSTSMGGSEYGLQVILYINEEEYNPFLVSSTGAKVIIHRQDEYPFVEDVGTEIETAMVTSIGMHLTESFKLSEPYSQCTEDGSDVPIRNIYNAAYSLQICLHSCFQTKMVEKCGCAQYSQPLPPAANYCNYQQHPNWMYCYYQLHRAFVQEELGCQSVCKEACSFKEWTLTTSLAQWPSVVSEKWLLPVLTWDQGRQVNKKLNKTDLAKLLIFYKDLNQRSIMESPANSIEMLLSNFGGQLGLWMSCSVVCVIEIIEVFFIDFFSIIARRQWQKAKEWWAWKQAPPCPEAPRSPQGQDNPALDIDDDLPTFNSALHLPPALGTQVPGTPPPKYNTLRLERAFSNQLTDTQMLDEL",
  "test": "Short circuit current assay to determine ENaC blocker potency in human bronchial epithelial cells",
  "type": "cell-based",
  "conditions": "50% inhibition of the total amiloride-sensitive short-circuit current (ISC) in human bronchial epithelial cells (HBECs) at air-liquid interface; apical addition; read-out: Averages · ENaC IC50 (nM) Avg",
  "procedure": "Example 6 Short circuit current assay to determine ENaC blocker potency in human bronchial epithelial cells\nCell culture Human bronchial epithelial cells (HBECs) (Lonza, UK) were cultured using a modification of the method described by Coote et al, (2008). Cells were seeded into plastic T-75 flasks and grown in Bronchial Epithelial Cell Growth Medium (BEGM) (Lonza, UK) supplemented with bovine pituitary extract (52 ng/mL), hydrocortisone (0.5 μg/mL), human recombinant Epidermal Growth Factor (0.5 ng/mL), epinephrine (0.5 ng/mL), transferrin (10 ng/mL), insulin (5 ng/mL), retinoic acid (0.1 ng/mL), triiodothyronine (6.5 ng/mL), gentamycin (50 μg/mL) and amphotericin-B (50 ng/mL). Medium was changed every 48 hours until cells were 90% confluent. Cells were then passaged and seeded (8.25×10^5 cells/insert) onto polycarbonate Snapwell™ inserts (Costar, UK) in differentiation media containing 50% DMEM in BGEM with the same supplements as above but without triiodothyronine and a final retinoic acid concentration of 50 nM (all-trans retinoic acid; Sigma-Aldrich, UK). Cells were maintained submerged for the first 7 days in culture after which time they were exposed to an apical air interface for the remainder of the culture period. From the first day of establishment of an ALI, HBEC were fed with a DMEM:HAMS F-12 (1:1) media containing 2% Ultroser G (Pall BioSepra, France) with gentamycin (50 μg/mL) and amphotericin B (50 ng/mL). Cells were used for short-circuit current assay between days 14-21 after the establishment of the ALI. At all stages of culture, cells were maintained at 37° C. in 5% CO2 in an air incubator.\nShort-Circuit Current (ISC) Measurements\nSnapwell inserts were mounted in Costar Vertical Diffusion Chambers (Costar, UK) and were bathed with continuously gassed Ringer solution (5% CO2 in O2; pH 7.4) maintained at 37° C. containing (in mM): 120 NaCl, 25 NaHCO3, 3.3 KH2PO4, 0.8 K2HPO4, 1.2 CaCl2, 1.2 MgCl2 and 10 glucose. The solution osmolarity was always between 280-300 mOsm/kg H2O for all physiological salt solutions used. Cells were voltage clamped to 0 mV (model EVC4000, WPI). Transepithelial resistance (RT) was measured by applying a 2 mV pulse at 30 s intervals and calculating RT by Ohm's law. Data were recorded using a PowerLab workstation (ADInstruments, UK).\nENaC blocker compounds were added to the apical chamber from a 1000-fold stock solution (prepared in DMSO) to achieve a cumulative concentration response in terms of the inhibition of the basal ISC. At the completion of the concentration response, a supra-maximal concentration of amiloride (10 μM) was added. The concentration of test compound that induced a 50% inhibition of the total amiloride-sensitive ISC (IC50) was calculated using GraphPad Prism v6.05. […]",
  "note": "Where a name gives a salt, the structure may show the parent alone.",
  "data": [
    {"smiles": "CCn1c(CNC(=O)c2nc3cn[nH]c3nc2N)[n+](CC)c2ccc(C(=O)O)cc21", "note": "[Example 3]", "values": [
      {"measurement": "IC50", "value": 106, "unit": "nM"}
    ]},
    {"smiles": "CCn1c(CNC(=O)c2nc3c(C)n[nH]c3nc2N)[n+](CC)c2ccc(C(=O)O)cc21", "note": "[Example 2, 2-[({6-amino-3-methyl-1H-pyrazolo[3,4-b]pyrazin-5-yl}formamido)methyl]-6-carboxy-1,3-diethyl-1H-1,3-benzodiazol-3-ium formate]", "values": [
      {"measurement": "IC50", "value": 91.5, "unit": "nM"}
    ]},
    {"smiles": "CCn1c(CNC(=O)c2nc3cn[nH]c3nc2N)[n+](CC)c2ccc(C(=O)N3CCC(N(C[C@H](O)[C@@H](O)[C@H](O)[C@H](O)CO)C[C@H](O)[C@@H](O)[C@H](O)[C@H](O)CO)CC3)cc21", "note": "[Example 4, 2-[({6-amino-1H-pyrazolo[3,4-b]pyrazin-5-yl}formamido)methyl]-6-(4-{bis[(2S,3R,4R,5R)-2,3,4,5,6-pentahydroxyhexyl]amino}piperidine-1-carbonyl)-1,3-diethyl-1H-1,3-benzodiazol-3-ium trifluoroacetic acid trifluoroacetate]", "values": [
      {"measurement": "IC50", "value": 47, "unit": "nM"}
    ]},
    {"smiles": "CCn1c(CNC(=O)c2nc3c(C)n[nH]c3nc2N)[n+](CC)c2ccc(OC)cc21", "note": "[Example 1, 2-[({6-amino-3-methyl-1H-pyrazolo[3,4-b]pyrazin-5-yl}formamido)methyl]-1,3-diethyl-6-methoxy-1H-1,3-benzodiazol-3-ium trifluoroacetate]", "values": [
      {"measurement": "IC50", "value": 2, "unit": "nM"}
    ]}
  ]
}
